US6676950B2, “Neurokinin receptor antagonists and methods of use thereof for inhibiting HIV infection” (The Children's Hospital of Philadelphia, priority 2001, dated 2004)

What was measured:
HIV Bal strain = test: HIV RT activity in culture supernatants of HIV Bal strain-infected MDM; assay type: cell-based, HIV-1; conditions: for HIV RT activity increased: MDM, HIV Bal
Procedure: The cells were also incubated with SP and/or anti-SP antibody. In this case, SP was incubated with (1:1000 dilution in 10% FCS DMEM) or without anti-SP antibody at room temperature for 10 min and then the mixture was added to the cell cultures for 2 h. When the cells were treated with the combination of CP-96,345 and SP, or CP-96,345, SP and anti-SP antibody, CP-96,345 was incubated with the cell culture for 10 min and then SP was added to the MDM or CP-96,345, SP and anti-SP (1:1000 in 10% FCS DMEM) were incubated for 10 min at room temperature and the mixture was incubated with the MDM for 2 h before infection with HIV. Untreated MDM served as controls. The cells were treated prior to, during, and throughout the infection.
HIV Infection: After 2 h incubation with or without the reagents described above, the cells were infected with equal amounts of cell-free HIV based on p24 antigen content (20 ng/10^6 cells) overnight, and then washed to remove unbound virus. Fresh media containing SP and/or CP-96,345 or anti-SP antibody were added to the MDM as described above. The culture media and the reagents were replaced twice weekly. The culture supernatants were harvested for HIV reverse transcriptase (RT) activity determinations. After HIV infection, the MDM were incubated for 8 to 12 days. At the termination of the experiments, cellular RNA was extracted for assessment of HIV gag gene expression using RT-PCR or real time RT-PCR assays.
The HIV RT activity assay was carried out based on the technique of Willey et al. (30) with modification (22).

CCR5 = test: Flow cytometry of CCR5 receptor expression on MDM; assay type: cell-based, human; conditions: incubated overnight (24 h); direct immunofluorescence
Procedure: The cells were removed from the culture plate and then resuspended in 100 μl of phosphate-buffered saline (PBS). After incubation with 20 μl of either anti-CCR5-FITC or anti-CXCR4-FITC or anti-CD4-FITC or anti-CD14-FITC for 45 min at 4° C., the cells were washed twice with PBS and fixed with 1% paraformaldehyde in PBS. Fluorescein-conjugated control antibodies were isotype-matched IgG. Fluorescence was analyzed on an EPICS-Elite flow cytometer (Beckman-Coulter Electronics, Hialeah, Fla.).

HIV LTR promoter = test: HIV LTR-driven CAT activity assay in U38 cells; assay type: cell-based
Source text: ACH-2 and U38 cell lines (25, 26) were obtained from the NIH AIDS Reagent Program. DNA extracted from ACH-2 cells was used as a positive standard for HIV DNA PCR as previously reported (27). The U38 cell line contains stably integrated, silent copies of the HIV LTR (long terminal repeat) promoter linked to a CAT (chloramphenicol acetyltransferase) gene and was used to study the effect of SP and/or CP-96,345 and R-113281 on the activation of HIV LTR promoter.
Chloramphenicol acetyltransferase (CAT) activity assay: U38 cells (2×10^6 cells) were incubated with different concentrations of SP and/or CP-96,345 or R-113281 for 48 h. Untreated U38 cells were used as a background control. Cellular proteins were extracted using 1X Reporter Lysis Bufffer (Promega Corp., Madison, Wis.). The lysates were incubated with a mixture containing 0.15 μCi of ^14C-labeled chloramphenicol (DuPont Inc., Boston, Mass.) and 200 μg/ml of n-Butyryl CoA (Promega Corp., Madison, Wis.) in a total volume of 125 μl at 37° C. for 3 h. The acetylated forms of chloramphenicol were extracted with xylene (Aldrich Chemical Company, Milwaukee, Wis.). CAT activity of each sample was quantified using a liquid-scintillation counter (Packard Instrument Company, Downers Grove, Ill.). The results were expressed as the ratio of CAT activity (CPM) of the SP and/or CP-96,345-treated or R-113281-treated U38 to that of the background control.

Compound | viral replication as determined by HIV RT activity (HIV Bal strain; 10^−7M, 8 days after infection, vs HIV infection control) | CCR5 receptor expression on MDM (percentage positive cells) (CCR5) | HIV RT activity increased (HIV Bal strain; SP 10^−6M, 12 days after infection) | HIV RT activity increased (HIV Bal strain; SP 10^−8M, 12 days after infection) | HIV RT activity increased (HIV Bal strain; SP 10^−10M, 12 days after infection) | HIV replication in MDM (HIV RT activity and HIV gag mRNA levels) (HIV Bal strain; SP alone 10^−6M, 12 days after infection) | HIV LTR-driven CAT activity (HIV LTR promoter; SP 10^−10 to 10^−6M, 48 h, P<0.05 vs untreated control cells) | HIV LTR-driven CAT activity (HIV LTR promoter; SP (10^−5M), 48 hours)
COc1ccccc1CN[C@H]1C2CCN(CC2)[C@H]1C(c1ccccc1)c1ccccc1 [CP-96,344] | did not have the effect | did not affect |  |  |  |  |  | 
Substance P [SP] |  |  | 58% | 40% | 14% | enhanced HIV replication | significantly increased | significantly increases
